Key:
Conditions in all cases: 48 h
CU-ACC1 [1] = assay: area under concentration-response curve (viability) (AUC (a.u.)); higher = less active
Summary of the method: (§1)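 Cells from three adrenocortical carcinoma lines were seeded at 500–1,000 cells/well in 5 µL medium in 1,536-well plates. Each library compound was added as 23 nL at 11 concentrations, and after 48 h CellTiter-Glo was added for 15 minutes at room temperature before reading luminescence. Plate-wise normalisation to vehicle and empty-well controls preceded curve fitting. AC50 and area under the curve were calculated only for inhibitory or non-responding curve classes.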

CU-ACC2 = assay: as above
Summary of the method: as §1

CU-ACC1 [2] = assay: AC50 viability; higher = less potent
Summary of the method: as §1

NCI-H295R = assay: area under concentration-response curve (viability) (AUC (a.u.)); higher = less active
Summary of the method: as §1

Row | SMILES | area under concentration-response curve (CU-ACC1 [1]) | area under concentration-response curve (CU-ACC2) | AC50 viability (CU-ACC1 [2]) [µM] | area under concentration-response curve (NCI-H295R)
1 | Clc1ccccc1C(c1ccccc1)(c1ccccc1)n1ccnc1 | 509 | 518 | 18.6 | –
2 | O=C(O)CC[C@H]1CC[C@@](c2cc(F)ccc2F)([S+](=O)([O-])c2ccc(Cl)cc2)CC1 | 359 | – | 0.00105 | 255
3 | CCc1ccc(/C=C2/SC(=S)NC2=O)cc1 | 396 | – | 2.63 | 394
4 | CN1CCC(CC1)=C2C3=C(C=CC=C3)\C=C/C4=C2C=CC=C4 | 373 | 480 | 8.33 | –
5 | O=C(O)c1ccc(O)c2ncc(N3CCOCC3)cc12 | 442 | 525 | 23.5 | –
6 | COC1CCC(C(=O)c2ccc3nc4c(cc3c2)CCCO4)CC1 (stereo not drawn) | 460 | 501 | 16.6 | –
7 | [O-][n+]1cccc(-c2nc3c(Cl)cccc3cc2[C@@H](Nc2ncnc3cccnc23)C(F)(F)F)c1 | 332 | 368 | 26.3 | –
8 | CC1Oc2cc(cnc2N)-c2c(nn(C)c2C#N)CN(C)C(=O)c2ccc(F)cc21 (stereo not drawn) | 463 | 485 | 6.61 | –
9 | CN(C)C(=O)c1ccc([S+](=O)([O-])c2ccc(NC(=O)[C@@](C)(O)C(F)(F)F)c(Cl)c2)cc1 | 346 | 640 | 5.25 | –
10 | COC[C@H]1OC(=O)C2=COC3=C2[C@@]1(C)\C4=C(C5CCC(=O)[C@@]5(C)C[C@H]4OC(C)=O)/C3=O (stereo partly drawn) | 446 | 549 | 16.6 | –
11 | C[C@@H]1CC2C3C[C@H](F)C\4=C\C(=O)\C=C/[C@]4(C)[C@@]3(F)[C@@H](O)C[C@]2(C)[C@@]1(OC(=O)C5=CC=CO5)C(=O)SCF (stereo partly drawn) | 468 | 592 | 41.7 | –
12 | NC(=O)c1noc([C@H](CCCC2CCCCC2)CC(=O)NO)n1 | 446 | 531 | 41.7 | –
13 | CN(C)c1ccccc1CN1CCCN(Cc2ccccc2N(C)C)C1c1ccncc1 | 448 | – | 8.33 | 444
14 | O=C(O)[C@H](O)[C@@H](O)[C@H](O[C@@H]1O[C@H](CO)[C@H](O)[C@H](O)[C@H]1O)[C@H](O)CO | 342 | – | 0.00118 | 307
15 | N[S+](=O)([O-])c1ccc([S+](=O)([O-])Nc2cccc3c(Cl)c[nH]c23)cc1 | 404 | 527 | 8.33 | –
16 | Clc1ccc(C(Cn2ccnc2)OCc2ccsc2Cl)c(Cl)c1 (stereo not drawn) | 476 | 584 | 16.6 | –
17 | O=C(NO)c1cnc(NC2(c3cccc(F)c3)CCCCC2)nc1 | 474 | – | 20.9 | 538
18 | FC(F)(F)c1ccc(Nc2nc3cc(Oc4ccnc(-c5ncc(C(F)(F)F)[nH]5)c4)ccc3[nH]2)cc1 | 479 | 603 | 4.68 | –
19 | O=C(NO)C1(C[S+](=O)([O-])c2ccc(Oc3ccc(Cl)cc3)cc2)CCOCC1 | 450 | 553 | 16.6 | –
20 | CN1CCc2c(n(Cc3ccc(C(=O)NO)cc3)c3ccccc23)C1 | 426 | 482 | 29.5 | –
21 | N#Cc1ccc(COC[C@H]2O[C@@H](n3c(NCc4ccc(Cl)c(Cl)c4)nc4c(N)ncnc43)[C@H](O)[C@@H]2O)cc1 | 464 | – | 20.9 | 494
22 | O=C(Nc1cccc(Br)c1)c1cccc([S+](=O)([O-])N2CCCCCC2)c1 | 486 | 608 | 29.5 | –
23 | COC1=CC=CC2=C1C(=C(/C(=O)N(C)C3=CC=C(C=C3)C(F)(F)F)C(=O)N2C)/O | 279 | 187 | 0.0525 | –
24 | CCOC(=O)[C@@]1(CCCCCCOc2ccc(Cl)cc2)CO1 | 382 | 624 | 23.5 | –

Row | SMILES | area under concentration-response curve (CU-ACC1 [1]) | area under concentration-response curve (CU-ACC2) | AC50 viability (CU-ACC1 [2]) [µM] | area under concentration-response curve (NCI-H295R)
25 | OC1=CC2=C(C=C1)C(=O)\C(=C(O2)\C3=CC(=C(O)C=C3)O)O | 451 | 548 | 14.8 | –
26 | Cc1cc2c(F)c(Oc3ncnn4cc(OC[C@@H](C)O)c(C)c34)ccc2[nH]1 | 317 | – | 0.00263 | 329
27 | Cc1ccc(-n2nc(C(C)(C)C)cc2NC(=O)Nc2ccc(OCCN3CCOCC3)c3ccccc23)cc1 | 374 | 499 | 29.5 | –
28 | Cc1nc2cc(C(=O)N3CCC4(CC3)CC(=O)c3c(cnn3C(C)C)C4)ccc2[nH]1 | 467 | – | 26.3 | 568
29 | OC1=CC=C(C=C1)C/2=C/C3=C(OC2)C=C(O)C=C3 | 436 | – | 18.6 | 471
30 | O=C(NOCC(O)CO)c1cc(Br)c(F)c(F)c1Nc1ccc(I)cc1F (stereo not drawn) | 416 | 407 | 1.18 | –
31 | COc1ccccc1N1CCN(CCN(C(=O)C2CCCCC2)c2ccccn2)CC1 | 351 | – | 20.9 | 378
32 | c1nc2c(NC3CCCCC3)nc(Nc3ccc(N4CCOCC4)cc3)nc2[nH]1 | 283 | – | 0.00118 | 274
33 | CC(=O)N(O)CCCCCNC(=O)CCC(=O)N(O)CCCCCNC(=O)CCC(=O)N(O)CCCCCN | 379 | – | 11.8 | 432
34 | C[C@H](NC(=O)[C@@H](O)c1cc(F)cc(F)c1)C(=O)N[C@@H]1C(=O)N(C)c2ccccc2-c2ccccc21 | 381 | – | 26.3 | 424
35 | C[C@](O)(COc1ccc(C#N)cc1)C(=O)Nc1ccc(C#N)c(C(F)(F)F)c1 | 322 | – | 0.00118 | 248
36 | CC(C)c1c(C(=O)Nc2ccccc2)c(-c2ccccc2)c(-c2ccc(F)cc2)n1CC[C@@H](O)C[C@@H](O)CC(=O)O | 544 | – | 6.45 | 635
37 | CO[C@H]1C[C@@H]2CC[C@@H](C)[C@@](O)(O2)C(=O)C(=O)N2CCCC[C@H]2C(=O)O[C@H]([C@H](C)C[C@@H]2CC[C@@H](OCCO)[C@H](OC)C2)CC(=O)[C@H](C)/C=C(/C)[C@@H](O)[C@@H](OC)C(=O)[C@H](C)C[C@H](C)\C=C/C=C\C=C/1C | 421 | 439 | 18.6 | –
38 | CCC1CCCCN1C(=O)n1ncc(C(O)(c2ccccc2)c2ccccc2)n1 (stereo not drawn) | 435 | 571 | 18.6 | –
39 | O=C(Nc1ccc(OC(F)(F)Cl)cc1)c1cnc(N2CC[C@@H](O)C2)c(-c2ccn[nH]2)c1 | 442 | 574 | 33.2 | –
40 | N[C@@H]1C[C@H]1c1ccccc1 | 341 | – | 0.00186 | 353
41 | O=C1N\N=C(\CC2=CC=CC(=C2)C(=O)N3CCN(CC3)C4=NC=CC=C4C#N)C5=CC=CC=C15 | 450 | – | 18.6 | 548
42 | CN(C)Cc1ccc(-c2nc3cccc4c3n2CCNC4=O)cc1 | 294 | 216 | 33.2 | –
43 | O=C(CCN1CCN(C(=O)OCc2cc(Cl)cc(Cl)c2)CC1)c1ccc2[nH]c(=O)oc2c1 | 468 | 495 | 23.5 | –
44 | CC(=O)O[C@@]1(CC[C@H]2[C@@H]3\C=C(Cl)/C4=C/C(=O)[C@@H]5C[C@@H]5[C@]4(C)[C@H]3CC[C@]12C)C(C)=O | 325 | – | 2.35 | 304
45 | O=C1CSC(=O)N1C(CCc1ccncc1)COc1ccc(-c2cccc([N+](=O)[O-])c2)cc1 (stereo not drawn) | 309 | – | 2.63 | 396
46 | CCn1c(-c2nonc2N)nc2cncc(CNC3CCNCC3)c21 | 477 | – | 14.8 | 526
47 | CN1CC[C@H]([C@@H]1CO)C2=C3OC(=C/C(=O)C3=C(O)C=C2O)\C4=C(Cl)C=C(C=C4)C(F)(F)F | 477 | – | 14.8 | 538
48 | CCOC1=CC(=CC=C1C/2=N/[C@@](C)(C3=CC=C(Cl)C=C3)[C@](C)(N2C(=O)N4CCN(CC4)CC(=O)N5CCOCC5)C6=CC=C(Cl)C=C6)C(C)(C)C | 440 | – | 16.3 | –

— the supplement of paper PMC10949913
